Source: patent US20120015090A1, “READILY WATER-SOLUBLE MYRICITRIN COMPOSITION” (SAN-EI GEN F.F.I., INC., priority 2009, published 2012)

Legend:
Type in all cases: physicochemical
[1] = Evaluation of preservation stability, presence or absence of deposits in acid and sugar solutions (Experiment Example 3); parameters: key: +: the presence of deposits; −: the absence of deposits; x: no dissolution in the acid and sugar solution; settings: 210 days
Procedure: MY and γ-CD were used in the 1:1 proportion (mole ratio) to prepare a powder composition (sample 1) according to the method of Example 1. […] Each solution was hot-packed in a 100-ml glass vial (93° C.). The drinks so prepared were allowed to cool, and placed under 50° C., room temperature (25±2° C.), and low-temperature (5° C.) conditions for 210 days. The presence or absence of deposits was then checked by visual inspection. […] The drinks so prepared were allowed to cool, and placed under 50° C., room temperature (25±2° C.), and low-temperature (5° C.) conditions for 210 days. The presence or absence of deposits was then observed. In the table, the symbol “+” means the presence of deposits, and “−” the absence of deposits. The symbol “x” means no dissolution in the acid and sugar solution.

[2] = Evaluation of water solubility with α- and β-cyclodextrins (Reference Experiment Example)
Procedure: Evaluation of Water Solubility with α- and β-Cyclodextrins Instead of γ-CD, α-cyclodextrin (α-CD) and β-cyclodextrin (β-CD) (both from Nihon Shokuhin Kako Co., Ltd.) were used to prepare MY inclusions, and the solubility of the compositions in water was evaluated.
Specifically, an MY composition containing 3 moles of α-CD (Reference Sample 1), or an MY composition containing 3 moles of β-CD (Reference Sample 2) per mole of MY were prepared according to the method of Example 1, and the solubility of each composition in water was determined as an MY solubility (mg/ml) according to the method of Experiment Example 1. The solubility (mg/ml) of the MY itself was also determined as a control, and the solubility (fold) was calculated from the relative ratio of the two.

[3] = Evaluation of MY composition solubility in water (Experiment Example 1)
Procedure: The MY and γ-CD were used in the proportions (mole ratios) presented in Table 1, and […] different powdery MY compositions (Samples 1 to 22) were prepared according to the method of Example 1.
The powdery MY composition (Samples 1 to 22) or a control MY (MY itself) was added to water (20 ml) in a 100-ml Erlenmeyer flask while stirring. The samples were added until they could not be dissolved further, and formed deposits. Each solution was shaken (Bio-Shaker BR-3000LF, 160 rpm, amplitude=40 mm, Taitec Co., Ltd.) at 25° C. for 40 hours, and centrifuged at 9,000 rpm for 10 min to collect the supernatant. The supernatant was appropriately diluted with a 0.1% phosphoric acid aqueous solution, and absorbance (346 nm) was measured.
1) MY (50 mg) was accurately weighed, and dissolved in methanol to make the volume precisely 100 ml. 2) The solution was appropriately diluted with a 0.1% phosphoric acid aqueous solution to prepare MY solutions of 0.0001, 0.0005, 0.001, 0.005, and 0.01 mg/ml concentrations. 3) The absorbance of the standard solution at a wavelength of maximum absorption was measured with a spectrophotometer. 4) A standard curve was created based on the content of MY in the MY solution, and the measured absorbance value.

[4] = Evaluation of the solubility of other flavonoids in water (Experiment Example 2)
Procedure: The solubility (mg/ml) of each composition in water in terms of the flavonoid was then determined according to the method of Experiment Example 1. The solubility (mg/ml) of the flavonoid itself in water was also determined as a control, and the solubility (fold) was calculated from the relative ratio of the two.

C[C@H]1O[C@@H](Oc2c(-c3cc(O)c(O)c(O)c3)oc3cc(O)cc(O)c3c2=O)[C@@H](O)[C@@H](O)[C@@H]1O [MY, myricitrin]
presence or absence of deposits ([1]; pH 3, 50° C., flavonoid concentration 0.05%): +
presence or absence of deposits ([1]; pH 3, 50° C., flavonoid concentration 0.10%): +
presence or absence of deposits ([1]; pH 3, refrigerated (5° C.), flavonoid concentration 0.05%): +
presence or absence of deposits ([1]; pH 3, refrigerated (5° C.), flavonoid concentration 0.10%): +
presence or absence of deposits ([1]; pH 3, room temperature, flavonoid concentration 0.05%): +
presence or absence of deposits ([1]; pH 3, room temperature, flavonoid concentration 0.10%): +
presence or absence of deposits ([1]; pH 6, 50° C., flavonoid concentration 0.05%): −
presence or absence of deposits ([1]; pH 6, 50° C., flavonoid concentration 0.10%): −
presence or absence of deposits ([1]; pH 6, refrigerated (5° C.), flavonoid concentration 0.05%): +
presence or absence of deposits ([1]; pH 6, refrigerated (5° C.), flavonoid concentration 0.10%): +
presence or absence of deposits ([1]; pH 6, room temperature, flavonoid concentration 0.05%): +
presence or absence of deposits ([1]; pH 6, room temperature, flavonoid concentration 0.10%): +
presence or absence of deposits ([1]; pH 9, 50° C., flavonoid concentration 0.05%): −
presence or absence of deposits ([1]; pH 9, 50° C., flavonoid concentration 0.10%): −
presence or absence of deposits ([1]; pH 9, refrigerated (5° C.), flavonoid concentration 0.05%): −
presence or absence of deposits ([1]; pH 9, refrigerated (5° C.), flavonoid concentration 0.10%): −
presence or absence of deposits ([1]; pH 9, room temperature, flavonoid concentration 0.05%): −
presence or absence of deposits ([1]; pH 9, room temperature, flavonoid concentration 0.10%): −
Solubility (fold) ([2]; relative to MY alone = 1): 1 fold
Solubility (in terms of myricitrin, mg/ml) ([2]; water, method of Experiment Example 1, MY:CD = 1:3 mole ratio): 0.10 mg/mL
Solubility (fold) ([3]; relative to solubility of MY itself (non-inclusion) = 1, 25° C., 40 hours): 1 fold
Solubility (in terms of myricitrin, mg/ml) ([3]; shaken at 25° C. for 40 hours, MY:γ-CD = 1:X per sample): 0.12 mg/mL
Solubility (fold) (in terms of flavonoids) ([4]; Flavonoid:γ-CD = 1:0 (mole ratio), flavonoid itself, reference): 1 fold
Solubility (fold) (in terms of flavonoids) ([4]; Flavonoid:γ-CD = 1:1 (mole ratio)): 157.8 fold
Solubility (fold) (in terms of flavonoids) ([4]; Flavonoid:γ-CD = 1:3 (mole ratio)): 256.2 fold
Solubility (fold) (in terms of flavonoids) ([4]; Flavonoid:γ-CD = 1:5 (mole ratio)): 187.4 fold
Solubility (fold) (in terms of flavonoids) ([4]; Flavonoid:γ-CD = 1:10 (mole ratio)): 49.3 fold
Solubility (fold) (in terms of flavonoids) ([4]; Flavonoid:γ-CD = 1:15 (mole ratio)): 59.9 fold
Solubility (fold) (in terms of flavonoids) ([4]; Flavonoid:γ-CD = 1:20 (mole ratio)): 46.3 fold
